Broadly, the hepatocyte CLint is the rate of metabolic loss divided by the concentration. Low readings indicate slow turnover, high ones rapid turnover. In general, IC50 refers to the concentration needed to halve the response being measured. What is called microsomal CLint is the capacity of the preparation to metabolise the compound, expressed as a volume cleared per time. Higher therefore signals faster metabolism.

The structures appear in SMILES notation.

Data on seven compounds can be found in patent US20240246960A1 (adMare Therapeutics Society, priority 2021, published 2024).

Series [1] is described as follows: Hepatocyte stability assay, human hepatocytes. The class given is in vitro ADME. Particulars: for hepatocyte CLint at 1 uM: both sexes, human, cryopreserved hepatocytes, pH 7.3, 0.7 million cells per mL, 1 uM compound. How it is done: (§1) Cryopreserved mouse hepatocytes were obtained from a pool of 10 or more male CD-1 mice. Cryopreserved human hepatocytes were obtained from a pool of 10 or more donors of mixed gender. Final hepatocyte density was 0.7 million viable cells per mL and test compound concentration was 1 uM with a maximum of 0.01% DMSO. Cryopreserved hepatocytes were thawed, washed, and resuspended in Krebs-Heinslet buffer (pH 7.3). The reaction was initiated by adding the test compound into cell suspension and incubated for 0, […], 1, 1.5, and 2 h, respectively, at 37° C./5% CO2. The reaction was stopped by adding acetonitrile into the incubation mixture. Samples were then mixed, transferred completely to another 96-well plate, and centrifuged. Supernatants were used for HPLC-MS/MS analysis. […] Peak areas corresponding to the test compound were recorded.

Series [2] can be described thus: Hepatocyte stability assay, mouse hepatocytes. The class given is in vitro ADME. The note with it: for hepatocyte CLint at 1 uM: male, CD-1, mouse, cryopreserved hepatocytes, pH 7.3, 0.7 million cells per mL, 1 uM compound. How it is done:
as §1

A further series deals with T1, DNA-PK (Homo sapiens, UniProt P78527).
T1 construct: purchased Invitrogen PR9107A
The experiment in a line: DNA-PK Assay for Biochemical Enzymatic Inhibition (ADP Glo Kinase assay). The note with it: Table 1. In outline:
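Human DNA-PK (25 ng) preincubated 15 min with compounds (ten three-fold dilutions) in HEPES pH 7.5, MgCl2, KCl, calf thymus DNA buffer, then substrate 434.4 μM and ATP 64.4 μM (final) for 60 min at room temperature. ADP-Glo luminescence; percent inhibition fitted by four-parameter regression for IC50.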
For orientation: ADP-Glo turns the ADP formed in a reaction into a luminescent signal.

Series [3] is described as follows: Microsomal stability assay, mouse liver microsomes. Particulars: for microsomal CLint at 0.1 uM: male, CD-1, mouse, liver microsomes, pH 7.4, Microsomal Stability Mouse Clint, 0.1 mg/mL microsomes, 0.1 uM compound. For orientation: Microsomes from liver hold many membrane-bound enzymes, among them those of drug oxidation.

Consider `c1cnc2cc(N3CCOCC3)nc(O[C@H]3CC[C@@H](Nc4ncc5sccc5n4)CC3)c2c1` [Compound 84, N-((1s,4s)-4-((7-Morpholino-1,6-naphthyridin-5-yl)oxy)cyclohexyl)thieno[3,2-d]pyrimidin-2-amine], for which, in series [1], the “Hepatocyte Stability (human) % rem. 120 min” value is listed as “F (% remaining = 25-50%)” and the hepatocyte CLint at 1 uM is over 8.2 µL/min/1e6 cells. In series [2], the “Hepatocyte Stability (mouse) % rem. 120 min” value was “F (% remaining = 25-50%)” and the hepatocyte CLint at 1 uM was over 8.2 µL/min/1e6 cells. Also, the IC50 at DNA-PK was under 0.5 nM.

Turning to `O=C(N[C@H]1CC[C@@H](Oc2nc(N3CCOCC3)cc3ncccc23)CC1)c1ccncn1` [Compound 118, N-((1s,4s)-4-((7-morpholino-1,6-naphthyridin-5-yl)oxy)cyclohexyl)pyrimidine-4-carboxamide], in series [2], the “Hepatocyte Stability (mouse) % rem. 120 min” value is recorded as “E (% remaining = 0-25%)” and the hepatocyte CLint at 1 uM was over 8.2 µL/min/1e6 cells. Also, in series [3], the “Microsomal Stability (mouse) % rem. 60 min” value is “F (% remaining = 25-50%)” and the microsomal CLint at 0.1 uM was over 116 µL/min/mg. Further, the IC50 at DNA-PK was 0.5 to 1 nM.

In the case of `NC(=O)c1cnc(N[C@H]2CC[C@@H](Oc3nc(N4CCOCC4)cc4ncccc34)CC2)nc1` [Compound 52, 2-(((1s,4s)-4-((7-morpholino-1,6-naphthyridin-5-yl)oxy)cyclohexyl)amino)pyrimidine-5-carboxamide], in series [1], the “Hepatocyte Stability (human) % rem. 120 min” value is listed as “G (% remaining = 50-75%)” and the hepatocyte CLint at 1 uM is under 8.2 µL/min/1e6 cells. In series [2], the “Hepatocyte Stability (mouse) % rem. 120 min” value is recorded as “H (% remaining = 75-100%)” and the hepatocyte CLint at 1 uM is under 8.2 µL/min/1e6 cells. Besides, the IC50 at DNA-PK was under 0.5 nM.

For the compound `c1cnc2cc(N3CCOCC3)nc(O[C@H]3CC[C@@H](Nc4ncnc5ccoc45)CC3)c2c1` [Compound 80a, N-((1s,4s)-4-((7-morpholino-1,6-naphthyridin-5-yl)oxy)cyclohexyl)furo[3,2-d]pyrimidin-4-amine], in series [1], the “Hepatocyte Stability (human) % rem. 120 min” value is on record as “G (% remaining = 50-75%)” and the hepatocyte CLint at 1 uM was under 8.2 µL/min/1e6 cells. In series [2], the “Hepatocyte Stability (mouse) % rem. 120 min” value was “F (% remaining = 25-50%)” and the hepatocyte CLint at 1 uM was over 8.2 µL/min/1e6 cells. Also, the half-maximal inhibitory concentration (IC50) on DNA-PK is under 0.5 nM.

`c1cnc2cc(N3CCOCC3)nc(O[C@H]3CC[C@@H](Nc4cncnc4)CC3)c2c1` [Compound 28, N-((1s,4s)-4-((7-morpholino-1,6-naphthyridin-5-yl)oxy)cyclohexyl)pyrimidin-5-amine]: in series [2], the “Hepatocyte Stability (mouse) % rem. 120 min” value was “E (% remaining = 0-25%)” and the intrinsic metabolic clearance (hepatocyte CLint) at 1 uM was over 8.2 µL/min/1e6 cells. Besides, in series [3], the “Microsomal Stability (mouse) % rem. 60 min” value was “E (% remaining = 0-25%)” and the microsomal CLint at 0.1 uM is over 116 µL/min/mg. Moreover, the IC50 on DNA-PK was 0.5 to 1 nM.

Regarding `O=C(N[C@H]1CC[C@@H](Oc2nc(N3CCOCC3)cc3ncccc23)CC1)c1nccs1` [Compound 135, N-((1s,4s)-4-((7-morpholino-1,6-naphthyridin-5-yl)oxy)cyclohexyl)thiazole-2-carboxamide], in series [2], the “Hepatocyte Stability (mouse) % rem. 120 min” value is reported as “F (% remaining = 25-50%)” and the hepatocyte CLint at 1 uM was over 8.2 µL/min/1e6 cells. Besides, in series [3], the “Microsomal Stability (mouse) % rem. 60 min” value is recorded as “E (% remaining = 0-25%)” and the microsomal CLint at 0.1 uM is over 116 µL/min/mg. Further, the half-inhibitory concentration (IC50) on DNA-PK is under 0.5 nM.

As for `O=C(N[C@H]1CC[C@@H](Oc2nc(N3CCOCC3)cc3ncccc23)CC1)c1cccnc1` [Compound 115, N-((1s,4s)-4-((7-morpholino-1,6-naphthyridin-5-yl)oxy)cyclohexyl)nicotinamide], in series [2], the “Hepatocyte Stability (mouse) % rem. 120 min” value is “F (% remaining = 25-50%)” and the hepatocyte CLint at 1 uM is over 8.2 µL/min/1e6 cells. Besides, in series [3], the “Microsomal Stability (mouse) % rem. 60 min” value is “F (% remaining = 25-50%)” and the microsomal CLint at 0.1 uM is over 116 µL/min/mg. The IC50 on DNA-PK is under 0.5 nM.
